Read-outs that look alike come from different tables or passages of the source.
What was measured:
Type in all cases: biochemical
CDK2/cyclinA = target: T1, CDK2/cyclinA (Homo sapiens, UniProt P24941); experiment: CDK2/cyclinA kinase assay, IMAP fluorescence polarization
T1 construct: purchased Millipore
Description: (§1) Kinase assays were performed on recombinant purified enzymes using the non-radioactive IMAP fluorescence polarization assay format.
(§2) Compound stocks were prepared and diluted in DMSO and were added to kinase reactions at a 1/100 dilution for a final concentration of 1% DMSO. The components were added together to final concentrations listed in the tables below and incubated for two hours at room temperature.
(§3) The reactions were stopped by addition of stop solution.
CDK2: final stop concentration is 1× Developer buffer (100% A), IMAP beads 1/400
(§4) The samples were allowed to incubate for one more hour at room temperature and then the fluorescence polarization was measured. The plate normalized millipolarization (mP) values were plotted against the log of compound concentration for each compound and IC50 values were calculated using the spotfire IC50 calculator and confirmed by visual analysis.

CDK9/cyclinT1 = target: T2, CDK9/cyclinT1 (Homo sapiens, UniProt P50750); experiment: CDK9/cyclinT1 kinase assay, IMAP fluorescence polarization
T2 construct: purchased Millipore
Description: as §1, §2, §3
CDK9/CDK1/CDK7: final stop concentration is 1× Developer buffer (85% A/15% B), IMAP beads 1/400
as §4

CDK1/cyclinB = target: T3, CDK1/cyclinB (Homo sapiens, UniProt P06493); experiment: CDK1/cyclinB kinase assay, IMAP fluorescence polarization
T3 construct: purchased Millipore
Description: as §1, §2, §3
The samples were allowed to incubate for one more hour at room temperature and then the fluorescence polarization was measured.

T3 sequence (P06493 whole entry): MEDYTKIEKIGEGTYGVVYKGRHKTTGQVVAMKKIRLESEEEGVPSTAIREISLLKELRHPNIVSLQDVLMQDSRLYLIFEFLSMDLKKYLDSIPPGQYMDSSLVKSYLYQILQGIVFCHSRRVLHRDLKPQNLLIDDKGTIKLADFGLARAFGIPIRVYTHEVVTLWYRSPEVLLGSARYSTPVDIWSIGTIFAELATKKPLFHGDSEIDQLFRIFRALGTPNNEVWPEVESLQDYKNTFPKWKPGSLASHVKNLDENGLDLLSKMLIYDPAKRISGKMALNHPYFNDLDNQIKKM
T3 sequence (P14635 whole entry partner): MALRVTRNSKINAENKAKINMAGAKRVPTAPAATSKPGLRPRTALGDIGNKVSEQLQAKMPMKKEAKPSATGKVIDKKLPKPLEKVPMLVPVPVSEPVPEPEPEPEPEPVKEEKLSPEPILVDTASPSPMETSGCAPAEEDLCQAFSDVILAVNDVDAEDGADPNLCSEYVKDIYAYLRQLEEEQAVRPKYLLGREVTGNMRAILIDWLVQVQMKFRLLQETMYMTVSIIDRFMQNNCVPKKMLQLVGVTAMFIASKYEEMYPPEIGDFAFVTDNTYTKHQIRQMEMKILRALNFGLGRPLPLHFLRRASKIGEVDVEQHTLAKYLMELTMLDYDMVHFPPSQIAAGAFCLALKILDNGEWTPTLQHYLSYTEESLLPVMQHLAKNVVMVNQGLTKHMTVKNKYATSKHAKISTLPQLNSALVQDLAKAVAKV
T2 sequence (P50750 whole entry): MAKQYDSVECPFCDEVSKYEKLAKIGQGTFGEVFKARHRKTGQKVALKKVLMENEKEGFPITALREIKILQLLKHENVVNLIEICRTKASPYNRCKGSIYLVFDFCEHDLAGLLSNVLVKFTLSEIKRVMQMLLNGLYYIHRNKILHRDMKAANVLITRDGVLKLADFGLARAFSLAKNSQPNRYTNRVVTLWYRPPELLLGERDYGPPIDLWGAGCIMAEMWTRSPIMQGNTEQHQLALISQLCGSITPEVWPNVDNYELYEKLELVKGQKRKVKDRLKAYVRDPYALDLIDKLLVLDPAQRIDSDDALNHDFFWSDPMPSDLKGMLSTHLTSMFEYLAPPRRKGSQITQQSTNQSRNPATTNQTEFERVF
T2 sequence (O60563 whole entry partner): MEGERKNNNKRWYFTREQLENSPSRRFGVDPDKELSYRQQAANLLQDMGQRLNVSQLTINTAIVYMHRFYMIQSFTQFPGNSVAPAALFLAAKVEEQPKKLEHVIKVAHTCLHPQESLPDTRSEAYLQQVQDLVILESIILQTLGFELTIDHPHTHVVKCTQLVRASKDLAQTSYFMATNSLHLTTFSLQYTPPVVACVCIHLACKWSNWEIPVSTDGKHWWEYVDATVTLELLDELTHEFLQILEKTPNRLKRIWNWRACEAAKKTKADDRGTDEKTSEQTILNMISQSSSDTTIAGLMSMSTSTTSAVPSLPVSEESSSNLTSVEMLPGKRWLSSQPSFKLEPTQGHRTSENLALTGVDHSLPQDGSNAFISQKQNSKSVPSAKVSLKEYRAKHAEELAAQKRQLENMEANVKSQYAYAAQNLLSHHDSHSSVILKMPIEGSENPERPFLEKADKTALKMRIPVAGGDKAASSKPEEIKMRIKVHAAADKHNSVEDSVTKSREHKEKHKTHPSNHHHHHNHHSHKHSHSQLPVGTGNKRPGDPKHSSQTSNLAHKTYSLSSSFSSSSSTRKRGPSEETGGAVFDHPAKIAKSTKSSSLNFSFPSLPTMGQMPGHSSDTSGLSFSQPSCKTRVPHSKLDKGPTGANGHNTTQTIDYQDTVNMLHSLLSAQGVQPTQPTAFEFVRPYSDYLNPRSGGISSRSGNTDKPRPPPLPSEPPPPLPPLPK

| Structure (SMILES) | IC50 (CDK2/cyclinA) [µM] | IC50 (CDK9/cyclinT1) [µM] | IC50 (CDK1/cyclinB; read-out: CDK1 IC50) [µM] | IC50 (CDK1/cyclinB) [µM] |
| --- | --- | --- | --- | --- |
| Cc1cnc(Nc2cccc(Cl)c2)nc1-c1cccnc1NCCCN [Compound 56, N-{3-[2-(3-Chloro-phenylamino)-5-methyl-pyrimidin-4-yl]-pyridin-2-yl}-propane-1,3-diamine] | < 5 | < 5 | < 5 | – |
| Cc1nccn1CCCNc1ncccc1-c1ccnc(Nc2cccc(Cl)c2)n1 [Compound 81, (3-Chloro-phenyl)-(4-{2-[3-(2-methyl-imidazol-1-yl)-propylamino]-pyridin-3-yl}-pyrimidin-2-yl)-amine] | < 5 | < 5 | < 5 | – |
| CCCCNc1ncccc1-c1nc(Nc2cccc(Cl)c2)ncc1C [Compound 57, [4-(2-Butylamino-pyridin-3-yl)-5-methyl-pyrimidin-2-yl]-(3-chloro-phenyl)-amine] | > 50 | < 5 | > 50 | – |
| CN(C)CCNc1ncccc1-c1ccnc(Nc2cccc(Cl)c2)n1 [Compound 53, N-{3-[2-(3-Chloro-phenylamino)-pyrimidin-4-yl]-pyridin-2-yl}-N′,N′-dimethyl-ethane-1,2-diamine] | 5 to 15 | < 5 | 15 to 50 | – |
| COc1ncccc1-c1ccnc(Nc2ccncc2)n1 [Compound 89] | > 50 | > 50 | > 50 | – |
| Cc1cnc(Nc2cccc(Cl)c2)nc1-c1cccnc1NCCCn1ccnc1C [Compound 82, (3-Chloro-phenyl)-(5-methyl-4-{2-[3-(2-methyl-imidazol-1-yl)-propylamino]-pyridin-3-yl}-pyrimidin-2-yl)-amine] | 15 to 50 | < 5 | – | 5 to 15 |
| CC(C)(C)CC(=O)NCCCNc1ncccc1-c1ccnc(Nc2cccc(Cl)c2)n1 [Compound 71, N-(3-{3-[2-(3-Chloro-phenylamino)-pyrimidin-4-yl]-pyridin-2-ylamino}-propyl)-3,3-dimethyl-butyramide] | > 50 | < 5 | 5 to 15 | – |
| CC(=O)NCCCNc1ncccc1-c1nc(Nc2cccc(Cl)c2)ncc1C [Compound 66, N-(3-{3-[2-(3-Chloro-phenylamino)-5-methyl-pyrimidin-4-yl]-pyridin-2-ylamino}-propyl)-acetamide] | 15 to 50 | < 5 | > 50 | – |
| COCCCNc1ncccc1-c1ccnc(Nc2cccc(Cl)c2)n1 [Compound 75, (3-Chloro-phenyl)-{4-[2-(3-methoxy-propylamino)-pyridin-3-yl]-pyrimidin-2-yl}-amine] | < 5 | < 5 | 5 to 15 | – |
| COc1ncccc1-c1ccnc(Nc2cccc([N+](=O)[O-])c2)n1 [Compound 92, [4-(2-Methoxy-pyridin-3-yl)-pyrimidin-2-yl]-(3-nitro-phenyl)-amine] | > 50 | < 5 | > 50 | – |
| COc1ncccc1-c1ccnc(Nc2cccnc2)n1 [Compound 90, [4-(2-Methoxy-pyridin-3-yl)-pyrimidin-2-yl]-pyridin-3-yl-amine] | > 50 | > 50 | > 50 | – |
| CNCCCNc1ncccc1-c1ccnc(Nc2cccc(Cl)c2)n1 [Compound 62, N-{3-[2-(3-Chloro-phenylamino)-pyrimidin-4-yl]-pyridin-2-yl}-N′-methyl-propane-1,3-diamine] | 5 to 15 | < 5 | 5 to 15 | – |
| CC(=O)OCCCNc1ncccc1-c1ccnc(Nc2cccc(Cl)c2)n1 [Compound 76, Acetic acid 3-{3-[2-(3-chloro-phenylamino)-pyrimidin-4-yl]-pyridin-2-ylamino}-propyl ester] | < 5 | < 5 | 5 to 15 | – |
| Clc1cccc(Nc2nccc(-c3cccnc3NCC3CCCCC3)n2)c1 [Compound 50, (3-Chloro-phenyl)-{4-[2-(cyclohexylmethyl-amino)-pyridin-3-yl]-pyrimidin-2-yl}-amine] | > 50 | > 50 | > 50 | – |
| O=C1CCCN1CCCNc1ncccc1-c1ccnc(Nc2cccc(Cl)c2)n1 [Compound 77, 1-(3-{3-[2-(3-Chloro-phenylamino)-pyrimidin-4-yl]-pyridin-2-ylamino}-propyl)-pyrrolidin-2-one] | < 5 | < 5 | < 5 | – |
| Clc1cccc(Nc2nccc(-c3cccnc3NCCCN3CCOCC3)n2)c1 [Compound 78, (3-Chloro-phenyl)-{4-[2-(3-morpholin-4-yl-propylamino)-pyridin-3-yl]-pyrimidin-2-yl}-amine] | < 5 | < 5 | 5 to 15 | – |
| Nc1cnccc1-c1ccnc(Nc2cccc(Cl)c2)n1 [Compound 1, [4-(3-Amino-pyridin-4-yl)-pyrimidin-2-yl]-(3-chloro-phenyl)-amine] | < 5 | < 5 | < 5 | – |
| CC(=O)NCCNc1ncccc1-c1ccnc(Nc2cccc(Cl)c2)n1 [Compound 54, N-(2-{3-[2-(3-Chloro-phenylamino)-pyrimidin-4-yl]-pyridin-2-ylamino}-ethyl)-acetamide] | < 5 | < 5 | < 5 | – |

Second part, led by results:

| IC50 (CDK2/cyclinA) [µM] | IC50 (CDK9/cyclinT1) [µM] | IC50 (CDK1/cyclinB; read-out: CDK1 IC50) [µM] | Structure (SMILES) | IC50 (CDK1/cyclinB) [µM] |
| --- | --- | --- | --- | --- |
| 15 to 50 | < 5 | 5 to 15 | COc1ncccc1-c1ccnc(Nc2cccc(N3CCCC3)c2)n1 [Compound 106, [4-(2-Methoxy-pyridin-3-yl)-pyrimidin-2-yl]-(3-pyrrolidin-1-yl-phenyl)-amine] | – |
| < 5 | < 5 | 5 to 15 | COc1ncccc1-c1ccnc(Nc2cccc(S(=O)(=O)N3CCCCC3)c2)n1 [Compound 107, [4-(2-Methoxy-pyridin-3-yl)-pyrimidin-2-yl]-[3-(piperidine-1-sulfonyl)-phenyl]-amine] | – |
| < 5 | < 5 | > 50 | COc1ncccc1-c1ccnc(Nc2cccc(C(=O)OC(C)(C)C)c2)n1 [Compound 109, 3-[4-(2-Methoxy-pyridin-3-yl)-pyrimidin-2-ylamino]-benzoic acid tert-butyl ester] | – |
| > 50 | > 50 | > 50 | COc1ncccc1-c1ccnc(Nc2ccc([N+](=O)[O-])cc2)n1 [Compound 116, [4-(2-Methoxy-pyridin-3-yl)-pyrimidin-2-yl]-(4-nitro-phenyl)-amine] | – |
| < 5 | < 5 | < 5 | CCNC(=O)c1cccc(Nc2nccc(-c3cccnc3OC)n2)c1 [Compound 96, N-Ethyl-3-[4-(2-methoxy-pyridin-3-yl)-pyrimidin-2-ylamino]-benzamide] | – |
| > 50 | > 50 | > 50 | COc1ncccc1-c1ccnc(Nc2cccc(C3CCN(C(=O)OC(C)(C)C)CC3)c2)n1 [Compound 114, 4-{3-[4-(2-Methoxy-pyridin-3-yl)-pyrimidin-2-ylamino]-phenyl}-piperidine-1-carboxylic acid tert-butyl ester] | – |
| < 5 | < 5 | > 50 | CCNS(=O)(=O)c1cccc(Nc2nccc(-c3cccnc3OC)n2)c1 [Compound 101, N-Ethyl-3-[4-(2-methoxy-pyridin-3-yl)-pyrimidin-2-ylamino]-benzenesulfonamide] | – |
| < 5 | < 5 | < 5 | COc1ncccc1-c1ccnc(Nc2cccc(NC(C)=O)c2)n1 [Compound 98, N-{3-[4-(2-Methoxy-pyridin-3-yl)-pyrimidin-2-ylamino]-phenyl}-acetamide] | – |
| < 5 | < 5 | < 5 | COc1ncccc1-c1ccnc(Nc2cccc(S(=O)(=O)NCCO)c2)n1 [Compound 103, N-(2-Hydroxy-ethyl)-3-[4-(2-methoxy-pyridin-3-yl)-pyrimidin-2-ylamino]-benzenesulfonamide] | – |
| > 50 | > 50 | > 50 | COc1ncccc1-c1ccnc(Nc2cccc(S(=O)(=O)NC3CCCCC3)c2)n1 [Compound 104, N-Cyclohexyl-3-[4-(2-methoxy-pyridin-3-yl)-pyrimidin-2-ylamino]-benzenesulfonamide] | – |
| < 5 | < 5 | < 5 | CNS(=O)(=O)c1cccc(Nc2nccc(-c3cccnc3OC)n2)c1 [Compound 100, 3-[4-(2-Methoxy-pyridin-3-yl)-pyrimidin-2-ylamino]-N-methyl-benzenesulfonamide] | – |
| 5 to 15 | < 5 | 5 to 15 | COc1ncccc1-c1ccnc(Nc2cccc(C(=O)NCCN(C)C)c2)n1 [Compound 97, N-(2-Dimethylamino-ethyl)-3-[4-(2-methoxy-pyridin-3-yl)-pyrimidin-2-ylamino]-benzamide] | – |
| < 5 | < 5 | 5 to 15 | COc1ncccc1-c1ccnc(Nc2cccc(-c3nncn3C)c2)n1 [Compound 111, [4-(2-Methoxy-pyridin-3-yl)-pyrimidin-2-yl]-[3-(4-methyl-4H-[1,2,4]triazo1-3-yl)-phenyl]-amine] | – |
| < 5 | < 5 | < 5 | COc1ncccc1-c1ccnc(Nc2cccc(C(N)=O)c2)n1 [Compound 95, 3-[4-(2-Methoxy-pyridin-3-yl)-pyrimidin-2-ylamino]-benzamide] | – |
| < 5 | < 5 | < 5 | CCOC(=O)c1cccc(Nc2nccc(-c3cccnc3OC)n2)c1 [Compound 108, 3-[4-(2-Methoxy-pyridin-3-yl)-pyrimidin-2-ylamino]-benzoic acid ethyl ester] | – |
